From patent US20240317826A1, “COMPOSITIONS AND METHODS FOR TREATING AND/OR I[…] AGENT FOR TREATING HIV-1 INFECTIONS” (priority 2021, published 2024) come the findings set out here.

The subject of experiment [1] is HIV-1 particle production. As to the kind of experiment: Particle production (p24) in 293T cells transfected with pNL4-3 in the presence of stapled peptides. The format is cell-based. Conditions: p24 in virions and cell lysates. As for the experimental part:
FIG. 10A-FIG. 10B show the mechanism of HIV-1 inhibition by Stapled peptides. […] (1) Transfection of pNL4-3 plasmid in to 293T cells in the presence of stapled peptides and determine the particle production by analyzing p24 in the supernatant and cell lysates. (2) Virions produced are analyzed for their infectivity in the absence of stapled peptides. (3) Virions are subjected to Transmission Electron Microscopy (TEM) to determine the particle morphogenesis. (4) Purified and concentrated virions are subjected to Western blot analysis for the presence of INI1.
We hypothesized that INI1-derived Stapled peptides and drugs target IN and disrupt IN/RNA and IN/INI1 interactions. […] To test this hypothesis and to determine the mechanism of inhibition by stapled peptides, we tested the effect of stapled peptides on late events (production of HIV-1 particles and particle morphogenesis) and further tested the infectivity of particles that are produced (FIG. 10a).

Experiment [2] concerns HIV-1 virion morphogenesis. Description: TEM analysis of morphology of virions produced in the presence of stapled peptides. The format is cell-based. The conditions noted are these: ~200 virions each. The text has this: (§1) FIG. 12A-FIG. 12C show effects of stapled peptides on virion morphogenesis and incorporation of INI1. […] The middle panel is the expanded version and the lower panel represents the carton of the two viral particles from the middle panel. Note the empty capsid shell and eccentric electron dense material, typical of morphologically defective virions. […] About 200 virions each were scored to quantify four different types of morphological forms—Conical (Co), Eccentric (Ec), Immature (Im) and Unclear (Uc).
To determine if the virions produced in the presence of stapled peptides have similar defect in virion morphogenesis, we carried out TEM analysis of the virions (˜200 each).

The target in experiment [3] is T1, IN/TAR RNA complex (Human immunodeficiency virus type 1 group M subtype B, UniProt P04585).
T1 construct: expressed in transfected cells; host or cells: 293T cells
Description: RNA-co-IP in 293T cells: TAR RNA bound to YFP-IN. Format: cell-based, HIV-1. From the text: Panels d-g show the input RNA and protein levels within transfected cells: the RT-PCR analysis of input TAR RNA levels (panel d); Immunoblot analysis of input HA-INI1 (panel e); input YFP-IN (panel f); and GAPDH level for loading control (panel g). Lane 1 is RNA-co-IP using isotype IgG control antibodies and lanes 2-7 are RNA-co-IP using anti-GFP antibodies to pull down IN. There is ˜1000 fold inhibition of RNA and INI1 binding to IN in the presence of SP-38 peptide (compare lane 6 to lane 5).
For RNA-co-IP, […] were transfected with pCMV-Tat and pLTR-luc plasmids along with pYFP-IN and pCGN-INI1. Immunopreciptation was carried out as above using α-GFP (Cell Signal, Catalogue #2555; Lot #8; 5 ag/sample) antibodies. The immunecomplexes were then split into two and RNA was isolated from one half using Trizol reagent (Invitrogen Catalogue #15596026) and subjected to qRT-PCR using Early RT primers. The other half was subjected to immunoblot analysis.
To determine if stapled peptides can inhibit interaction of IN with TAR RNA in cells, we carried out RNA-co-IP experiments (FIG. 8e). YFP-IN and TAR RNA were expressed by co-transfecting plasmids pYFP-fN, pLTIR-luc and pTat in 293T cells. Cells were treated with SP-38 or SP-83 (D225G mutant) peptides. After transfection, the cell lysates were treated with DNaseI and subjected to immunoprecipitation (IP) using α-GFP antibodies to pull down YFP-IN and associated complexes. RNA was separated from the immune complexes and subjected to RT-PCR to detect bound TAR RNA (FIG. 8e, panel a). Immunoblot analysis of bound proteins were carried out using: α-HA to detect bound HA-INI1 (FIG. 8e, panel b) and α-GFP to detect YFP-IN (FIG. 8e, panel c). RT-PCR of the RNA isolated from cell lysate was used as input control (FIG. 8e, panel d). Immunoblot analysis of total proteins from cell lysates as input control were carried out using α-HA to detect input HA-INI1 (FIG. 8e, panel e), α-GFP to detect input YFP-IN (FIG. 8e, panel f), and α-GAPDH to detect GAPDH as loading control (FIG. 8e, panel g). […] Expression of both GFP-IN and TAR RNA in the cells led to successful RNA-co-IP by α-GFP antibodies (FIG. 8e, lane 5).

Experiment [4] deals with T2, IN-INI1 interaction (Human immunodeficiency virus type 1 group M subtype B, UniProt P04585).
T2 construct: made in house; host or cells: bacteria (E. coli inferred from the pGEX vector)
As to the kind of experiment: Alpha interaction assay: effect of stapled peptides on IN-INI1 interaction. Format: binding, HIV-1. The conditions noted are these: in vitro. On the procedure: FIG. 8A-FIG. 8D show quantitative alpha interaction assay to determine the effect of stapled peptides on the interaction of IN and IN-CTD with INI1 and INI1183-304 or TAR RNA. […] Fixed concentrations of GST-IN, 6His-INI1, and TAR RNA were incubated with increasing concentration of stapled peptides and the interaction was detected as Alpha Score. The IC50 values were determined by fitting the data to a four-parameter dose-response curve using Graph Pad prism. All the graphs represent the average of three independent experiments (Mean+/−SEM).
AlphaScreen proximity assay to detect the protein-protein and protein-RNA interactions. AlphaScreen assay was carried out using PerkinElmer Alpha-Lisa-6His Acceptor beads (Catalogue #AL128C), Alpha-Screen-GST donor beads (Catalogue #6765300), GST-tagged and His-tagged proteins for protein-protein interactions; and Alpha-Screen Streptavidin donor beads (Catalogue #6760002 S), Alpha-Lisa-GST acceptor beads (Catalogue #AL110C), Biotin-labeled RNA and GST-tagged proteins for protein-RNA interactions. The reaction was carried out according to the manufacturer's protocol in a reaction buffer contacting (25 mM HEPES pH 7.4, 100 mM NaCl (or 500 mM NaCl), 1 mM DTT, 1 mM MgCl2 and BSA 1 mg ml/ml). The mixture of proteins or protein and RNA were incubated for 1 hr at room temperate with shaking in a multi micro-plate shaker and then 20 ag ml/ml accepter beads were added and incubated for additional 1 h with shaking. Finally, 20 ag ml^−1 of donor beads were added and further incubated for 1 hr. The Alpha score readings were measured using Alpha-compatible Envision 2105 multi-plate reader (Perkin-Elmer). All the experiments related to this method were carried out 3 to 5 times and data were analyzed by using Graph Pad Prism 9 version 9.0.0 (GraphPad Software, CA). The RNA sequences used in this assay are listed in the Table 6d and were obtained from Integrated DNA technology.
These peptides were tested for their ability to disrupt the interaction between IN-INI1 and IN-TAR RNA in vitro.

The test system of experiment [5] is INI1 incorporation into HIV-1 virions. As to the kind of experiment: Immunoblot of virions for incorporation of INI1. The format is cell-based. The conditions noted are these: Western analysis of concentrated virions.
Excerpt: as §1
We tested the incorporation of INI1 into the virions. Electron microscopy analysis of ˜200 particles and Western analysis of concentrated virions were carried out to determine the presence or absence of INI1 (FIG. 12b).
For orientation: Immunoblotting shows a protein as a band on a membrane.

Entries after “also recorded” stand apart in the source; their conditions may differ. Like-named read-outs stand apart in the source and are kept apart here.

Turning to “lys-Leu-Met-Thr-Pro-Glu-Met-Phe-S5-Glu-Ile-Leu-S5-Cys-Asp-Leu-Asn [SP38]”, the “effect on particle production” value in experiment [1] is given as “did not affect”. Besides, the virion particle morphology entry in experiment [2] is “large number of morphologically defective “eccentric” particles and very few conical capsids; also recorded: increased proportion of eccentric virions”. The “inhibition of IN/RNA complex formation within cells” value in experiment [3] was “potently inhibits”. Further, in experiment [4], the “IC50, inhibition of IN-INI1 interactions” value is reported as “low nanomolar”. Besides, the “incorporation of INI1 into virions” value in experiment [5] is on record as “not incorporated; also recorded: lack of INI1 incorporation into virions”.

For “lys-Leu-Met-Thr-Pro-Glu-Met-Phe-S5-Glu-Ile-Leu-S5-Cys-Gly-Leu-Asn [SP83]”, the “inhibition of IN/RNA complex formation within cells” value in experiment [3] is on record as “not”; in experiment [3] (listed as SP83 (D225G)), “does not inhibit”. For the same substance, the “inhibition of RNA binding to IN in RNA-co-IP” value in experiment [3] (RT-PCR of bound TAR RNA) was “not”. Also, the “inhibition of IN-INI1 interactions” value in experiment [4] is reported as “not”. Also, the “incorporation of INI1 into virions” value in experiment [5] is on record as “incorporated”.
